Ends that are not written are not given here.
Test system: methicillin resistant Staphylococcus aureus (MRSA) biofilm
Assay: not given
Details: approximate peptide concentration […] (around 3 μg/ml); compared to untreated samples
In short: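 Static biofilm assay: 1/100 dilutions of overnight cultures grown in BM2 medium (pH 7, glucose, Casamino Acids) or Luria Broth with peptide added at time zero. After 22–46 h, adherent biofilm was stained with crystal violet and read at 595 nm. Some peptides were also tested on K. pneumoniae under flow in a Bioflux system.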

Substance | % Biofilm inhibition [%]
1018-R7: single substituted 1018 peptide (VRLIVARRIWRR-NH2) [Peptide 1018-R7] | 0
HH2-W3: single substituted HH2 peptide (VQWRIRVAVIRA-NH2) | 62
1002-A1: single substituted 1002 peptide (AQRWLIVWRIRK-NH2) [Peptide 1002-A1] | 55
1002-K4: single substituted 1002 peptide (VQRKLIVWRIRK-NH2) [Peptide 1002-K4] | 0
1018-V2: single substituted 1018 peptide (VVLIVAVRIWRR-NH2) [Peptide 1018-V2] | 67
1002-G2: single substituted 1002 peptide (VGRWLIVWRIRK-NH2) [Peptide 1002-G2] | 74
1002-L2: single substituted 1002 peptide (VLRWLIVWRIRK-NH2) [Peptide 1002-L2] | 72
HH2-G5: single substituted HH2 peptide (VQLRGRVAVIRA-NH2) | 34
1002-L11: single substituted 1002 peptide (VQRWLIVWRILK-NH2) [Peptide 1002-L11] | 61
1002-W5: single substituted 1002 peptide (VQRWWIVWRIRK-NH2) [Peptide 1002-W5] | 76
1018-K12: single substituted 1018 peptide (VRLIVAVRIWRK-NH2) [Peptide 1018-K12] | 67
1018-K4: single substituted 1018 peptide (VRLKVAVRIWRR-NH2) [Peptide 1018-K4] | 41

Test system: human peripheral blood mononuclear cells (MCP-1)
Assay: SPOT-synthesized derivative screen: production of chemokine MCP-1
Type: cell-based
Details: Table 12; No LPS; human PBMC, peptide at ~18-24 μM
In short: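 PBMC from heparinized healthy-donor venous blood, Ficoll-separated, cultured at 0.75 to 1×10^6 cells/ml, 37 °C, 5% CO2, under the treatment regimens. MCP-1 in cell-free supernatants measured by capture ELISA.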

Substance | Fold increase in MCP1 cf. untreated cells
1018-R7: single substituted 1018 peptide (VRLIVARRIWRR-NH2) [Peptide 1018-R7] | 1.9
HH2-W3: single substituted HH2 peptide (VQWRIRVAVIRA-NH2) | 21
1002-A1: single substituted 1002 peptide (AQRWLIVWRIRK-NH2) [Peptide 1002-A1] | 19.8
1002-K4: single substituted 1002 peptide (VQRKLIVWRIRK-NH2) [Peptide 1002-K4] | 1.4
1018-V2: single substituted 1018 peptide (VVLIVAVRIWRR-NH2) [Peptide 1018-V2] | 1.3
1002-G2: single substituted 1002 peptide (VGRWLIVWRIRK-NH2) [Peptide 1002-G2] | 4.7
1002-L2: single substituted 1002 peptide (VLRWLIVWRIRK-NH2) [Peptide 1002-L2] | 9.1
HH2-G5: single substituted HH2 peptide (VQLRGRVAVIRA-NH2) | 2.9
1002-L11: single substituted 1002 peptide (VQRWLIVWRILK-NH2) [Peptide 1002-L11] | 9.5
1002-W5: single substituted 1002 peptide (VQRWWIVWRIRK-NH2) [Peptide 1002-W5] | 0.9
1018-K12: single substituted 1018 peptide (VRLIVAVRIWRK-NH2) [Peptide 1018-K12] | 4.1
1018-K4: single substituted 1018 peptide (VRLKVAVRIWRR-NH2) [Peptide 1018-K4] | 1.2

Same assay, conditions: Table 12; No LPS; human PBMC, peptide at ~18-24 μM; background subtracted 139 (HH2 derivatives), 170 (1018 derivatives), 242 (1002 and hybrid peptides) pg/ml

Substance | MCP1 [pg/mL]
1018-R7: single substituted 1018 peptide (VRLIVARRIWRR-NH2) [Peptide 1018-R7] | 161
HH2-W3: single substituted HH2 peptide (VQWRIRVAVIRA-NH2) | 3418
1002-A1: single substituted 1002 peptide (AQRWLIVWRIRK-NH2) [Peptide 1002-A1] | 4559.2
1002-K4: single substituted 1002 peptide (VQRKLIVWRIRK-NH2) [Peptide 1002-K4] | 106.3
1018-V2: single substituted 1018 peptide (VVLIVAVRIWRR-NH2) [Peptide 1018-V2] | 56
1002-G2: single substituted 1002 peptide (VGRWLIVWRIRK-NH2) [Peptide 1002-G2] | 891.9
1002-L2: single substituted 1002 peptide (VLRWLIVWRIRK-NH2) [Peptide 1002-L2] | 1968.2
HH2-G5: single substituted HH2 peptide (VQLRGRVAVIRA-NH2) | 321
1002-L11: single substituted 1002 peptide (VQRWLIVWRILK-NH2) [Peptide 1002-L11] | 2048.4
1002-W5: single substituted 1002 peptide (VQRWWIVWRIRK-NH2) [Peptide 1002-W5] | -36.2
1018-K12: single substituted 1018 peptide (VRLIVAVRIWRK-NH2) [Peptide 1018-K12] | 531
1018-K4: single substituted 1018 peptide (VRLKVAVRIWRR-NH2) [Peptide 1018-K4] | 40

Test system: LPS-stimulated human peripheral blood mononuclear cells (IL1-β)
Assay: not given
Type: cell-based
Details: Table 12; cells stimulated with 10 ng/ml LPS

Substance | Fold change in IL1β relative to no peptide LPS stimulated cells
1018-R7: single substituted 1018 peptide (VRLIVARRIWRR-NH2) [Peptide 1018-R7] | 1.68
HH2-W3: single substituted HH2 peptide (VQWRIRVAVIRA-NH2) | 0.67
1002-A1: single substituted 1002 peptide (AQRWLIVWRIRK-NH2) [Peptide 1002-A1] | 0.05
1002-K4: single substituted 1002 peptide (VQRKLIVWRIRK-NH2) [Peptide 1002-K4] | 0.43
1018-V2: single substituted 1018 peptide (VVLIVAVRIWRR-NH2) [Peptide 1018-V2] | 0.12
1002-G2: single substituted 1002 peptide (VGRWLIVWRIRK-NH2) [Peptide 1002-G2] | 0.05
1002-L2: single substituted 1002 peptide (VLRWLIVWRIRK-NH2) [Peptide 1002-L2] | 0.05
HH2-G5: single substituted HH2 peptide (VQLRGRVAVIRA-NH2) | 1.27
1002-L11: single substituted 1002 peptide (VQRWLIVWRILK-NH2) [Peptide 1002-L11] | 0.05
1002-W5: single substituted 1002 peptide (VQRWWIVWRIRK-NH2) [Peptide 1002-W5] | 0.05
1018-K12: single substituted 1018 peptide (VRLIVAVRIWRK-NH2) [Peptide 1018-K12] | 0.10
1018-K4: single substituted 1018 peptide (VRLKVAVRIWRR-NH2) [Peptide 1018-K4] | 0.30

Same assay, conditions: Table 12; cells stimulated with 10 ng/ml LPS; LPS alone 1313 (HH2 derivatives), 1927 (1018 derivatives), 2455 (1002 and hybrid peptides) pg/ml

Substance | IL1β Production [pg/mL]
1018-R7: single substituted 1018 peptide (VRLIVARRIWRR-NH2) [Peptide 1018-R7] | 2201
HH2-W3: single substituted HH2 peptide (VQWRIRVAVIRA-NH2) | 874
1002-A1: single substituted 1002 peptide (AQRWLIVWRIRK-NH2) [Peptide 1002-A1] | 127
1002-K4: single substituted 1002 peptide (VQRKLIVWRIRK-NH2) [Peptide 1002-K4] | 1065
1018-V2: single substituted 1018 peptide (VVLIVAVRIWRR-NH2) [Peptide 1018-V2] | 159
1002-G2: single substituted 1002 peptide (VGRWLIVWRIRK-NH2) [Peptide 1002-G2] | 127
1002-L2: single substituted 1002 peptide (VLRWLIVWRIRK-NH2) [Peptide 1002-L2] | 127
HH2-G5: single substituted HH2 peptide (VQLRGRVAVIRA-NH2) | 1672
1002-L11: single substituted 1002 peptide (VQRWLIVWRILK-NH2) [Peptide 1002-L11] | 127
1002-W5: single substituted 1002 peptide (VQRWWIVWRIRK-NH2) [Peptide 1002-W5] | 127
1018-K12: single substituted 1018 peptide (VRLIVAVRIWRK-NH2) [Peptide 1018-K12] | 127
1018-K4: single substituted 1018 peptide (VRLKVAVRIWRR-NH2) [Peptide 1018-K4] | 393
